Laboratory results from PMC10336134, “Effects of dialkoxybenzenes against Varroa destructor and identification of 1-allyloxy-4-propoxybenzene as a promising acaricide candidate” (Scientific Reports, 2023).

Columns and labels:
[1] = molecular target: T1, Human expressed AChE (hAChE) (Homo sapiens, UniProt P22303); experiment: Ellman assay, Michaelis-Menten kinetics with inhibitor; type: biochemical; conditions: acetylthiocholine; 0.5-3 mM compound; pH 7.6; competitive
T1 construct: recombinant, commercial lyophilized powder (Sigma C1682)

[2] = tested on: T2, Varroa destructor AChE (VdAChE); experiment: Ellman assay, […] nm; type: biochemical; conditions: no test compound; sodium phosphate pH 7.6, DTNB, ethanol/Tween 20; mite extract; read-out: KM (× 10^-5 M)
T2 construct: native extract from pre-frozen mites

Honey bee AChE (AmAChE) = tested on: T3, Honey bee AChE (AmAChE); experiment: Ellman assay; type: biochemical, Apis mellifera; conditions: no test compound; sodium phosphate pH 7.6, DTNB, ethanol/Tween 20; bee isolate; read-out: KM (× 10^-5 M)
T3 construct: gene AmAChE1; native isolate from nurse bees
From the text: Ellman assay on Honey bee AChE (AmAChE)

purified protein = substrate: CC(=O)SCC[N+](C)(C)C; experiment: purified protein; type: biochemical, Homo sapiens; conditions: no test compound, sodium phosphate pH 7.6, DTNB, ethanol/Tween 20

Molecule: CCN(CC)C(=O)c1cccc(C)c1 [DEET]
- Ellman assay, Michaelis-Menten kinetics with inhibitor [1]: all three forms of the enzyme, hAChE, AmAChE and VdAChE, were competitively inhibited by DEET

Molecule: CC(=O)SCC[N+](C)(C)C [acetylthiocholine iodide]
- Km [2]: 14 µM
- Km (Honey bee AChE (AmAChE)): 22 µM

B1: Human expressed AChE (hAChE) (Homo sapiens) (protein)
chain: EGREDAELLVTVRGGRLRGIRLKTPGGPVSAFLGIPFAEPPMGPRRFLPPEPKQPWSGVVDATTFQSVCYQYVDTLYPGFEGTEMWNPNRELSEDCLYLNVWTPYPRPTSPTPVLVWIYGGGFYSGASSLDVYDGRFLVQAERTVLVSMNYRVGAFGFLALPGSREAPGNVGLLDQRLALQWVQENVAAFGGDPTSVTLFGESAGAASVGMHLLSPPSRGLFHRAVLQSGAPNGPWATVGMGEARRRATQLAHLVGCPPGGTGGNDTELVACLRTRPAQVLVNHEWHVLPQESVFRFSFVPVVDGDFLSDTPEALINAGDFHGLQVLVGVVKDEGSYFLVYGAPGFSKDNESLISRAEFLAGVRVGVPQVSDLAAEAVVLHYTDWLHPEDPARLREALSDVVGDHNVVCPVAQLAGRLAAQGARVYAYVFEHRASTLSWPLWMGVPHGYEIEFIFGIPLDPSRNYTAEEKIFAQRLMRYWANFARTGDPNEPRDPKAPQWPPYTAGAQQYVSLDLRPLEVRRGLRAQACAFWNRFLPKLLSATDTLDEAERQWKAEFHRWSSYMVHWKNQFDHYSKQDRCSDL
notes: recombinant, commercial lyophilized powder (Sigma C1682)
- Km (purified protein): (1.0 ± 0.2) × 10^-4 M
- Vmax (purified protein): 51 µM/min
